US9592231B2, “Therapy for complications of diabetes” (AbbVie Deutschland GmbH & Co. KG, priority 2007, dated 2017)
Where two headings read alike, the source gives them in different places.

Key:
moderate hypertension = conditions: patients, 10 to 100 mg/day, by comparison with placebo; cited from earlier work
ETA [1] = target: T1, ETA (Homo sapiens, UniProt P25101); conditions: Lip (2001); cited from earlier work
T1 sequence (P25101 21-427): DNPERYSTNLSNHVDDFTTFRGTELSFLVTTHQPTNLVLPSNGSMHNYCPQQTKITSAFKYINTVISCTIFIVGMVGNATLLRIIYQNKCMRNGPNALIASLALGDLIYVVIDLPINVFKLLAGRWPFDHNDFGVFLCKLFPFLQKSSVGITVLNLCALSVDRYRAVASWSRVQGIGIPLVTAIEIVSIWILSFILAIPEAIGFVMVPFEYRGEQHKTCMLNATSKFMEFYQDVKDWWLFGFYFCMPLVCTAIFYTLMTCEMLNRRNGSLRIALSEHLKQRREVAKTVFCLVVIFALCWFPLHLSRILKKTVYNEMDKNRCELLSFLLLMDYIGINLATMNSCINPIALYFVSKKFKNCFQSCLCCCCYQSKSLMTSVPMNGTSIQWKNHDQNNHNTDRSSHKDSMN

[2] = tested on: streptozotocin-induced diabetes in rats; conditions: 100 mg/kg/day; cited from earlier work
resistant hypertension = conditions: Myogen news release Aug. 18, 2005; cited from earlier work
ETA [3] = target: T1, ETA; test: 125I-endothelin-1 receptor binding cold ligand competition, steady-state, human myocardial membranes; parameters: human myocardial membranes prepared from failing and non-failing left ventricles; from tissue; host or cells: human left-ventricular myocardium (failing and non-failing), membrane preparation; conditions: mean of 8 assays
obese mice = conditions: 50 mg/kg/day; cited from earlier work
[4] = tested on: rats with streptozotocin-induced diabetes; conditions: 100 mg/kg/day; cited from earlier work
ETA [5] = target: T1, ETA; test: ETA affinity reported by Riechers et al (1996); format: binding; conditions: calculated from the Riechers et al (1996) data
hyperglycemic rats = conditions: type 2 diabetes model; cited from earlier work
[6] = tested on: rat model of insulin resistance; conditions: rats, 5 mg/kg/day, cited from earlier work

Structure (SMILES): COc1cc(OC)nc(O[C@H](C(=O)O)C(OC)(c2ccccc2)c2ccccc2)n1 [darusentan, (+)-(S)-2-[(4,6-dimethoxy-2-pyrimidinyl)oxy]-3-methoxy-3,3-diphenylpropionic acid]
- DBP (moderate hypertension): significantly reduce
- SBP (moderate hypertension): significantly reduce
- selectivity Ki(ETB)/Ki(ETA) (ETA [1]): about 160
- plasma glucose levels [2]: unaffected
- renal effects of streptozotocin-induced diabetes, including increased glomerular diameter and deposition of eosinophilic material within the glomeruli [2]: partially or fully reversed
- results of clinical trial DAR-201 (resistant hypertension): positive results
- Ki(ETB)/Ki(ETA) (ETA [3]): 1181±148
- increase in body weight (obese mice): completely prevented
- glomerular matrix protein deposition [4]: normalized
- serum glucose concentrations [4]: neither compound was found to influence

Structure (SMILES): COc1cc(OC)nc(OC(C(=O)O)C(OC)(c2ccccc2)c2ccccc2)n1 (racemic) [racemate, 2-(4,6-dimethoxypyrimidin-2-yloxy)-3-methoxy-3,3-diphenylpropionic acid]
- selectivity Ki(ETB)/Ki(ETA) (ETA [5]): about 62

Structure (SMILES): COC(c1ccccc1)(c1ccccc1)[C@H](Oc1nc(C)cc(C)n1)C(=O)O [BSF 208075]
- plasma glucose levels (hyperglycemic rats): reduced

Structure (SMILES): CCCCN(CCCC)C(=O)CN1C[C@H](c2ccc3c(c2)OCO3)[C@@H](C(=O)O)[C@@H]1c1ccc(OC)cc1 [atrasentan]
- ΔAUC for glucose ([6]; meal tolerance test): significantly reduce
- ΔAUC for glucose-insulin index ([6]; meal tolerance test): significantly reduce
- ΔAUC for insulin ([6]; meal tolerance test): significantly reduce
- 3-hour fasting glucose level [6]: not
- 3-hour fasting insulin level [6]: significantly reduce
